# Experimental data reported in paper PMC3991326, “Optimal Translational Termination Requires C4 Lysyl Hydroxylation of eRF1” (Molecular Cell, 2014).
# Target: T1, Jmjd4 (Homo sapiens, UniProt Q9H9V9)
# T1 construct: recombinant from E. coli, Ni-NTA purified
# T1 sequence (Q9H9V9 1-417): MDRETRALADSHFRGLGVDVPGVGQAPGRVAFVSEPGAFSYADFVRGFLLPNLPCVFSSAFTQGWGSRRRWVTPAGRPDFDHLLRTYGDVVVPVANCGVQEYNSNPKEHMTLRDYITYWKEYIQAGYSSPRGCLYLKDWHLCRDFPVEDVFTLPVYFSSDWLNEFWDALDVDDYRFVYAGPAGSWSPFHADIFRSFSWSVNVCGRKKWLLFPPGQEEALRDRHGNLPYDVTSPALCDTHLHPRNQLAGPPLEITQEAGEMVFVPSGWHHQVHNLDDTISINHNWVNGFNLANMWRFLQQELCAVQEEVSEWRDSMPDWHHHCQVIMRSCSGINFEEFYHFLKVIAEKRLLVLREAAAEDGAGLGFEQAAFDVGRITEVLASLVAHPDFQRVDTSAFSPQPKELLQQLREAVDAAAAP
# Assay: in vitro hydroxylation of recombinant eRF1 K63
# Assay type: biochemical
# Settings: eRF1 as prime substrate; Fe(II), 2OG; competitive with 2OG (stated for 2OG oxygenases in general)
structure (smiles),measurement,value
O=C(O)CNC(=O)C(=O)O [NOG],in vitro hydroxylation of recombinant eRF1 K63,"eRF1 K63 hydroxylation was significantly impaired by a 2OG competitive inhibitor (NOG, N-Oxalylglycine)"
